# Reference: patent US20220372031A1, “NOVEL TRICYCLIC AROMATIC HETEROCYCLIC COMPOUND, PREPARATION METHOD THEREFOR, PHARMACEUTICAL COMPOSITION AND APPLICATION THEREOF” (SHANGHAI LONGWOOD BIOPHARMACEUTICALS CO., LTD., priority 2019, published 2022)
# Biological target: T1, PD-1/PD-L1 (Homo sapiens, UniProt Q9NZQ7)
# T1 construct: Recombinant human PD-L1 protein (19-238) with a His-tagged at the C-terminus; purchased AcroBiosystems PD1-H5229 (PD-L1); PD1-H5257 (PD-1)
# Experiment: PD-1/PD-L1 homogeneous time-resolved fluorescence (HTRF) binding assay
# Details: PD-1/PD-L1 HTRF binding, ~3 nM PD1, 10 nM PD-L1, 25° C., PBS pH 7.4
# Experimental: Assays were performed in standard black 384-well polystyrene plates and a final volume was 20 μL. The inhibitor was first serially diluted with DMSO and added to the wells of the plate, followed by the addition of other reaction components. The final concentration of DMSO in the assay was 1%. Assays were performed at 25° C. in PBS buffer (pH 7.4) containing 0.05% Tween-20 and 0.1% BSA. Recombinant human PD-L1 protein (19-238) with a His-tagged at the C-terminus was purchased from AcroBiosystems (PD1-H5229). Recombinant human PD-1 protein (25-167) with an Fc tag at the C-terminus was also purchased from AcroBiosystems (PD1-H5257). The PD-L1 and PD-1 proteins were diluted in assay buffer and then […] of the solution was extracted and added to the wells of the plate. Plates were centrifuged and proteins and inhibitors were preincubated for 40 minutes. After incubation, 0.1 μl of HTRF detection buffer containing europium […] labeled anti-human IgG (PerkinElmer-AD0212), Fc-specific and anti-His SureLight®-Allophycocyanin (APC, PerkinElmer-AD0059H) conjugated antibodies was added. After centrifugation, the plates were incubated at 25° C. for 60 minutes. Data was read in a PHERAstar FS plate reader (665 nm/620 nm ratio). Final concentrations in the assay were ˜3 nM PD1, 10 nM PD-L1, 1 nM europium anti-human IgG, and 20 nM anti-His-allophycocyanin. Activity data were fitted using GraphPad Prism 5_0 software to derive IC50 values for inhibitors.
# T1 sequence (Q9NZQ7 19-238): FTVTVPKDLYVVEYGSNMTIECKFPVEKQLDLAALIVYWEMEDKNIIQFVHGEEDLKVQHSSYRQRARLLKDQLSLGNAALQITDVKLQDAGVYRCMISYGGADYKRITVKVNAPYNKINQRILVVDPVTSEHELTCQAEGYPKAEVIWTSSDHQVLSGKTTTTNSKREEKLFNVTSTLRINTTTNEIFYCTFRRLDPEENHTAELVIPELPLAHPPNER
row,Compound,IC50 [nM]
1,COc1nc(-c2cccc(-c3cccc(-c4nc5cc6c(c(C#N)c5o4)CC[C@H]6N4CC[C@@H](C(=O)NS(=O)(=O)C5(C)CC5)C4)c3C)c2C)cnc1CN1CC[C@@H](O)C1 [Compound 084],≤ 10
2,COc1nc(-c2cccc(-c3cccc(-c4cc5cc6c(c(C#N)c5o4)CC[C@H]6N4CC[C@@H](C(=O)O)C4)c3Cl)c2Cl)cnc1CN1CC[C@@H](O)C1 [Compound 257],≤ 10
3,COc1nc(-c2cccc(-c3cccc(-c4nc5cc6c(c(C#N)c5o4)CC[C@H]6N4CC[C@@H](C(=O)NS(=O)(=O)C5CC5)C4)c3C)c2C)ccc1CN1CC[C@@H](O)C1 [Compound 034],≤ 10
4,Cc1c(Nc2nccc3cc(CN4CC[C@@H](O)C4)cnc23)cccc1-c1cccc(-c2nc3cc4c(c(C#N)c3o2)CC[C@H]4N2CC[C@@H](C(=O)NS(=O)(=O)C3CC3)C2)c1C [Compound 032],≤ 10
5,N#Cc1c2c(cc3nc(-c4cccc(-c5cccc(Nc6nccc7cc(CN8CC[C@@H](O)C8)cnc67)c5Cl)c4Cl)oc13)[C@H](N1CC[C@@H](C(=O)NS(=O)(=O)C3CC3)C1)CC2 [Compound 236],≤ 10
6,COc1nc(-c2cccc(-c3cccc(-c4nc5cc6c(c(C#N)c5o4)CC[C@H]6N4CC[C@@H](C(=O)NS(=O)(=O)C5CC5)C4)c3C)c2Cl)cnc1CN1CC[C@@H](O)C1 [Compound 232],≤ 10
7,COc1nc(-c2cccc(-c3cccc(-c4nc5cc6c(c(C#N)c5o4)CC[C@H]6N4CC[C@@H](C(=O)NS(=O)(=O)C5(C)CC5)C4)c3C)c2Cl)cnc1CN1CC[C@@H](O)C1 [Compound 234],≤ 10
8,Cc1c(Nc2nccc3cc(CN4CC[C@@H](O)C4)cnc23)cccc1-c1cccc(-c2cc3cc4c(c(C#N)c3o2)CC[C@H]4N2CC[C@@H](C(=O)NS(=O)(=O)C3(C)CC3)C2)c1C [Compound 252],≤ 10
9,Cc1c(Nc2nccc3cc(CN4CC[C@@H](O)C4)cnc23)cccc1-c1cccc(-c2cc3cc4c(c(C#N)c3o2)CCCC4N2CC(C(=O)O)C2)c1C (stereo partly drawn) [Compound 002],≤ 10
10,N#Cc1c2c(cc3cc(-c4cccc(-c5cccc(Nc6nccc7cc(CN8CC[C@@H](O)C8)cnc67)c5Cl)c4Cl)oc13)[C@H](N1CC[C@@H](C(=O)NS(=O)(=O)C3CC3)C1)CC2 [Compound 249],≤ 10
11,COc1nc(-c2cccc(-c3cccc(-c4cc5cc6c(c(C#N)c5o4)CC[C@H]6N4CC[C@@H](C(=O)NS(=O)(=O)C5(C)CC5)C4)c3C)c2Cl)cnc1CN1CC[C@@H](O)C1 [Compound 267],≤ 10
12,N#Cc1c2c(cc3nc(-c4cccc(-c5cccc(Nc6nccc7cc(CN8CC[C@@H](O)C8)cnc67)c5Cl)c4Cl)oc13)[C@@H](N1CC[C@@H](C(=O)O)C1)CC2 [Compound 029],≤ 10
13,CC1(S(=O)(=O)NC(=O)[C@@H]2CCN([C@@H]3CCc4c3cc3cc(-c5cccc(-c6cccc(Nc7nccc8cc(CN9CC[C@@H](O)C9)cnc78)c6Cl)c5Cl)oc3c4C#N)C2)CC1 [Compound 253],≤ 10
14,COc1nc(-c2cccc(-c3cccc(-c4nc5cc6c(c(C#N)c5o4)CC[C@H]6N4CC[C@@H](C(=O)O)C4)c3Cl)c2C)cnc1CNC[C@@H]1CCC(=O)N1 [Compound 268],≤ 10
15,Cc1c(Nc2nccc3cc(CN4CC[C@@H](O)C4)cnc23)cccc1-c1cccc(-c2cc3cc4c(c(C#N)c3o2)CCCC4NCCO)c1C (stereo partly drawn) [Compound 023],≤ 10
16,COc1nc(-c2cccc(-c3cccc(-c4cc5cc6c(c(C#N)c5o4)CC[C@H]6N4CC[C@@H](C(=O)NS(=O)(=O)C5(C)CC5)C4)c3Cl)c2C)cnc1CN1CC[C@@H](O)C1 [Compound 266],≤ 10
17,COc1nc(-c2cccc(-c3cccc(-c4nc5cc6c(c(C#N)c5o4)CCC6N4CC[C@@H](C(=O)O)C4)c3C)c2C)ccc1CN1CC[C@@H](O)C1 (stereo partly drawn) [Compound 008],≤ 10
18,Cc1c(Nc2nccc3cc(CN4CC[C@@H](O)C4)cnc23)cccc1-c1cccc(-c2cc3cc4c(c(C#N)c3o2)CC[C@@H]4N2CC[C@@H](C(=O)O)C2)c1C [Compound 243],≤ 10
19,Cc1c(Nc2nccc3cc(CN4CC[C@@H](O)C4)cnc23)cccc1-c1cccc(-c2nc3cc4c(c(C#N)c3o2)CC[C@@H]4N2CC[C@@H](C(=O)O)C2)c1C [Compound 006],≤ 10
20,Cc1c(Nc2nccc3cc(CN4CC[C@@H](O)C4)cnc23)cccc1-c1cccc(-c2cc3cc4c(c(C#N)c3o2)CC[C@H]4N2CC[C@@H](C(=O)NS(=O)(=O)C3CC3)C2)c1Cl [Compound 250],≤ 10
21,COc1nc(-c2cccc(-c3cccc(-c4cc5cc6c(c(C#N)c5o4)CC[C@H]6N4CC[C@@H](C(=O)NS(=O)(=O)C5CC5)C4)c3C)c2C)cnc1CN1CC[C@@H](O)C1 [Compound 260],≤ 10

row,Compound,IC50 [nM]
1,Cc1c(Nc2nccc3cc(CN4CC[C@@H](O)C4)cnc23)cccc1-c1cccc(-c2cc3cc4c(c(C#N)c3o2)CCC4N2CC[C@@H](C(=O)O)C2)c1C (stereo partly drawn) [Compound 018],≤ 10
2,Cc1c(Nc2nccc3cc(CN4CC[C@@H](O)C4)cnc23)cccc1-c1cccc(-c2nc3cc4c(c(C#N)c3o2)CCC4NCCC(=O)O)c1C (stereo partly drawn) [Compound 028],≤ 10
3,Cc1c(Nc2nccc3cc(CN4CC[C@@H](O)C4)cnc23)cccc1-c1cccc(-c2cc3cc4c(c(C#N)c3o2)CC[C@H]4N2CC[C@@H](C(=O)O)C2)c1Cl [Compound 246],≤ 10
4,N#Cc1c2c(cc3nc(-c4cccc(-c5cccc(Nc6nccc7cc(CN8CC[C@@H](O)C8)cnc67)c5Cl)c4Cl)oc13)[C@@H](NCC(=O)O)CC2 [Compound 012],≤ 10
5,COc1nc(-c2cccc(-c3cccc(-c4cc5cc6c(c(C#N)c5o4)CC[C@H]6N4CC[C@@H](C(=O)NS(=O)(=O)C5CC5)C4)c3Cl)c2C)cnc1CN1CC[C@@H](O)C1 [Compound 262],≤ 10
6,Cc1c(Nc2nccc3cc(CN4CC[C@@H](O)C4)cnc23)cccc1-c1cccc(-c2nc3cc4c(c(C#N)c3o2)CC[C@H]4N2CC[C@@H](C(=O)NS(=O)(=O)C3CC3)C2)c1Cl [Compound 237],≤ 10
7,CCOC(=O)CN[C@H]1CCc2c1cc1nc(-c3cccc(-c4cccc(Nc5nccc6cc(CN7CC[C@@H](O)C7)cnc56)c4Cl)c3Cl)oc1c2C#N [Compound 043],10 to 100
8,Cc1c(-c2nc3cc4c(c(C#N)c3o2)CC[C@H]4N2CC[C@@H](C(=O)NS(=O)(=O)C3CC3)C2)cccc1-c1cccc(Nc2nccc3cc(CN4CC[C@@H](O)C4)cnc23)c1Cl [Compound 238],≤ 10
9,Cc1c(Nc2nccc3cc(CN4CC[C@@H](O)C4)cnc23)cccc1-c1cccc(-c2nc3cc4c(c(C#N)c3o2)CC[C@H]4N2CC[C@@H](C(=O)O)C2)c1Cl [Compound 040],≤ 10
10,CC1(S(=O)(=O)NC(=O)[C@@H]2CCN([C@@H]3CCc4c3cc3nc(-c5cccc(-c6cccc(Nc7nc(C(F)F)nc8cc(CN9CC[C@@H](O)C9)cnc78)c6Cl)c5Cl)oc3c4C#N)C2)CC1 [Compound 088],≤ 10
11,Cc1c(Nc2nccc3cc(CN4CC[C@@H](O)C4)cnc23)cccc1-c1cccc(-c2nc3cc4c(c(C#N)c3o2)CCC4N2CC[C@@H](C(N)=O)C2)c1C (stereo partly drawn) [Compound 010],≤ 10
12,CC1(S(=O)(=O)NC(=O)[C@@H]2CCN([C@@H]3CCc4c3cc3nc(-c5cccc(-c6cccc(Nc7nccc8cc(CN9CC[C@@H](O)C9)cnc78)c6Cl)c5Cl)oc3c4C#N)C2)CC1 [Compound 240],≤ 10
13,COc1nc(-c2cccc(-c3cccc(-c4nc5cc6c(c(C#N)c5o4)CC[C@H]6N4CC[C@@H](C(=O)NS(=O)(=O)C5CC5)C4)c3Cl)c2C)cnc1CN1CC[C@@H](O)C1 [Compound 231],≤ 10
14,COc1nc(-c2cccc(-c3cccc(-c4nc5cc6c(c(C#N)c5o4)CC[C@H]6N4CC[C@@H](C(=O)NS(=O)(=O)C5CC5)C4)c3C)c2C)cnc1CN1CC[C@@H](O)C1 [Compound 036],≤ 10
15,N#Cc1c2c(cc3nc(-c4cccc(-c5cccc(Nc6nccc7cc(CN8CC[C@@H](O)C8)cnc67)c5Cl)c4Cl)oc13)[C@@H](NCCC(=O)O)CC2 [Compound 011],≤ 10
16,COc1nc(-c2cccc(-c3cccc(-c4nc5cc6c(c(C#N)c5o4)CC[C@H]6N4CC[C@@H](C(=O)NS(=O)(=O)C5(C)CC5)C4)c3Cl)c2Cl)cnc1CN1CC[C@@H](O)C1 [Compound 086],≤ 10
17,Cc1c(Nc2nccc3cc(CN4CC[C@@H](O)C4)cnc23)cccc1-c1cccc(-c2nc3cc4c(c(C#N)c3o2)CC[C@H]4N2CC[C@@H](C(=O)O)C2)c1C [Compound 007],≤ 10
18,Cc1c(-c2cc3cc4c(c(C#N)c3o2)CC[C@H]4N2CC[C@@H](C(=O)NS(=O)(=O)C3CC3)C2)cccc1-c1cccc(Nc2nccc3cc(CN4CC[C@@H](O)C4)cnc23)c1Cl [Compound 251],≤ 10
19,COc1nc(-c2cccc(-c3cccc(-c4cc5cc6c(c(C#N)c5o4)CC[C@H]6N4CC[C@@H](C(=O)O)C4)c3Cl)c2C)cnc1CN1CC[C@@H](O)C1 [Compound 258],≤ 10
20,COc1nc(-c2cccc(-c3cccc(-c4nc5cc6c(c(C#N)c5o4)CC[C@H]6N4CC[C@@H](C(=O)O)C4)c3Cl)c2Cl)cnc1CN1CC[C@@H](O)C1 [Compound 162],≤ 10
21,COc1nc(-c2cccc(-c3cccc(-c4cc5cc6c(c(C#N)c5o4)CC[C@H]6N4CC[C@@H](C(=O)NS(=O)(=O)C5CC5)C4)c3Cl)c2Cl)cnc1CN1CC[C@@H](O)C1 [Compound 261],≤ 10
